Test results published in BigSolDB 2.1.

C=C[C@]1(C)C[C@@H](OC(=O)CSC(C)(C)CNC(=O)[C@H](N)C(C)C)[C@]2(C)[C@H](C)CC[C@]3(CCC(=O)[C@H]32)[C@@H](C)[C@@H]1O.Cl
solubility (mole fraction)
Settings | 278.15 K | 283.15 K | 288.15 K | 293.15 K | 298.15 K | 303.15 K | 308.15 K | 313.15 K
in ethanol | 0.0309 | 0.038 | 0.0432 | 0.0506 | 0.0601 | 0.0713 | 0.0837 | 0.101
in water | 0.00162 | 0.00321 | 0.00545 | 0.00853 | 0.0135 | 0.0214 | 0.0344 | 0.0486
